Values of other authors, collected in patent US20200163955A1, “STERILE COMPOSITIONS OF INDACATEROL SUITABLE FOR NEBULIZATION” (GLENMARK SPECIALTY S.A., priority 2018, published 2020).

Conditions: water

aqueous solubility: very slightly soluble in water
SMILES: CCc1cc2c(cc1CC)CC(NC[C@H](O)c1ccc(O)c3[nH]c(=O)ccc13)C2 [Indacaterol, 5-[(1R)-2-[(5,6-diethyl-2,3-dihydro-1H-inden-2-yl)amino]-1-hydroxyethyl]-8-hydroxy-1H-quinolin-2-one]
